Test results published in ChEMBL document CHEMBL4507282, “Data for DCP probe BI-1950” (2021).

Key:
[1] = target: Serine/threonine-protein kinase PRP4 homolog (Homo sapiens) (UniProt Q13523); conditions: Compound concentration 1000.0 nM
[2] = target: Alpha-2C adrenergic receptor (Homo sapiens) (UniProt P18825); conditions: Compound concentration 10.0 uM
[3] = target: Calcium/calmodulin-dependent protein kinase type 1B (Homo sapiens) (UniProt Q6P2M8); conditions: Compound concentration 1000.0 nM
[4] = target: Ribosomal protein S6 kinase alpha-4 (Homo sapiens) (UniProt O75676); conditions: Compound concentration 1000.0 nM
[5] = test system: Mast/stem cell growth factor receptor Kit (Homo sapiens), P10721 [V559D]; conditions: Compound concentration 1000.0 nM
[6] = target: Serine/threonine-protein kinase PAK 4 (Homo sapiens) (UniProt O96013); conditions: Compound concentration 1000.0 nM
[7] = target: Phosphatidylinositol 4-phosphate 5-kinase type-1 alpha (Homo sapiens) (UniProt Q99755); conditions: Compound concentration 1000.0 nM
[8] = target: TRAF2 and NCK-interacting protein kinase (Homo sapiens) (UniProt Q9UKE5); conditions: Compound concentration 1000.0 nM
[9] = target: Proto-oncogene tyrosine-protein kinase receptor Ret (Homo sapiens) (UniProt P07949); conditions: Compound concentration 1000.0 nM
[10] = target: Mitogen-activated protein kinase kinase kinase 13 (Homo sapiens) (UniProt O43283); conditions: Compound concentration 1000.0 nM
[11] = target: Activin receptor type-1-like (Homo sapiens) (UniProt P37023); conditions: Compound concentration 1000.0 nM
[12] = target: RAC-beta serine/threonine-protein kinase (Homo sapiens) (UniProt P31751); conditions: Compound concentration 1000.0 nM
[13] = target: Cyclin-dependent kinase 11B (Homo sapiens) (UniProt P21127); conditions: Compound concentration 1000.0 nM
[14] = target: Mitogen-activated protein kinase kinase kinase kinase 3 (Homo sapiens) (UniProt Q8IVH8); conditions: Compound concentration 1000.0 nM
[15] = test system: Epidermal growth factor receptor (Homo sapiens), P00533 [L858R,T790M]; conditions: Compound concentration 1000.0 nM
[16] = target: 5-hydroxytryptamine receptor 6 (Homo sapiens) (UniProt P50406); conditions: Compound concentration 10.0 uM
[17] = target: Activin receptor type-2B (Homo sapiens) (UniProt Q13705); conditions: Compound concentration 1000.0 nM
[18] = target: Tyrosine-protein kinase Fer (Homo sapiens) (UniProt P16591); conditions: Compound concentration 1000.0 nM
[19] = target: BMP-2-inducible protein kinase (Homo sapiens) (UniProt Q9NSY1); conditions: Compound concentration 1000.0 nM
[20] = target: Serine/threonine-protein kinase 17B (Homo sapiens) (UniProt O94768); conditions: Compound concentration 1000.0 nM
[21] = target: Calcium/calmodulin-dependent protein kinase type II subunit delta (Homo sapiens) (UniProt Q13557); conditions: Compound concentration 1000.0 nM
[22] = target: NT-3 growth factor receptor (Homo sapiens) (UniProt Q16288); conditions: Compound concentration 1000.0 nM
[23] = target: 3-phosphoinositide-dependent protein kinase 1 (Homo sapiens) (UniProt O15530); conditions: Compound concentration 1000.0 nM
[24] = target: Ephrin type-A receptor 3 (Homo sapiens) (UniProt P29320); conditions: Compound concentration 1000.0 nM
[25] = target: cGMP-dependent protein kinase 1 (Homo sapiens) (UniProt Q13976); conditions: Compound concentration 1000.0 nM
[26] = target: Homeodomain-interacting protein kinase 2 (Homo sapiens) (UniProt Q9H2X6); conditions: Compound concentration 1000.0 nM
[27] = target: Phosphatidylinositol 4,5-bisphosphate 3-kinase catalytic subunit alpha isoform (Homo sapiens) (UniProt P42336); conditions: Compound concentration 1000.0 nM
[28] = target: Serine/threonine-protein kinase Nek4 (Homo sapiens) (UniProt P51957); conditions: Compound concentration 1000.0 nM
[29] = target: Ribosomal protein S6 kinase alpha-1 (Homo sapiens) (UniProt Q15418); conditions: Compound concentration 1000.0 nM
[30] = target: Casein kinase I isoform alpha (Homo sapiens) (UniProt P48729); conditions: Compound concentration 1000.0 nM
[31] = target: Mitogen-activated protein kinase 13 (Homo sapiens) (UniProt O15264); conditions: Compound concentration 1000.0 nM
[32] = test system: Tyrosine-protein kinase ABL1 (Homo sapiens), P00519 [F317I]; conditions: Compound concentration 1000.0 nM
[33] = target: Tyrosine-protein kinase Lyn (Homo sapiens) (UniProt P07948); conditions: Compound concentration 1000.0 nM
[34] = test system: Hepatocyte growth factor receptor (Homo sapiens), P08581 [M1250T]; conditions: Compound concentration 1000.0 nM
[35] = target: Ephrin type-B receptor 1 (Homo sapiens) (UniProt P54762); conditions: Compound concentration 1000.0 nM
[36] = target: Serine/threonine-protein kinase MAK (Homo sapiens) (UniProt P20794); conditions: Compound concentration 1000.0 nM
[37] = target: Serine/threonine-protein kinase 38 (Homo sapiens) (UniProt Q15208); conditions: Compound concentration 1000.0 nM
[38] = test system: Receptor-type tyrosine-protein kinase FLT3 (Homo sapiens), P36888 [N841I]; conditions: Compound concentration 1000.0 nM
[39] = target: Ribosomal protein S6 kinase alpha-6 (Homo sapiens) (UniProt Q9UK32); conditions: Compound concentration 1000.0 nM
[40] = target: Cyclin-dependent kinase 13 (Homo sapiens) (UniProt Q14004); conditions: Compound concentration 1000.0 nM
[41] = target: Serine/threonine-protein kinase PLK3 (Homo sapiens) (UniProt Q9H4B4); conditions: Compound concentration 1000.0 nM
[42] = test system: Epidermal growth factor receptor (Homo sapiens), P00533 [G719S]; conditions: Compound concentration 1000.0 nM
[43] = target: Mu-type opioid receptor (Homo sapiens) (UniProt P35372); conditions: Compound concentration 10.0 uM
[44] = target: AP2-associated protein kinase 1 (Homo sapiens) (UniProt Q2M2I8); conditions: Compound concentration 1000.0 nM
[45] = target: Discoidin domain-containing receptor 2 (Homo sapiens) (UniProt Q16832); conditions: Compound concentration 1000.0 nM

Chain of Homeodomain-interacting protein kinase 2 (Homo sapiens) (Q9H2X6 whole entry, looked up, canonical isoform): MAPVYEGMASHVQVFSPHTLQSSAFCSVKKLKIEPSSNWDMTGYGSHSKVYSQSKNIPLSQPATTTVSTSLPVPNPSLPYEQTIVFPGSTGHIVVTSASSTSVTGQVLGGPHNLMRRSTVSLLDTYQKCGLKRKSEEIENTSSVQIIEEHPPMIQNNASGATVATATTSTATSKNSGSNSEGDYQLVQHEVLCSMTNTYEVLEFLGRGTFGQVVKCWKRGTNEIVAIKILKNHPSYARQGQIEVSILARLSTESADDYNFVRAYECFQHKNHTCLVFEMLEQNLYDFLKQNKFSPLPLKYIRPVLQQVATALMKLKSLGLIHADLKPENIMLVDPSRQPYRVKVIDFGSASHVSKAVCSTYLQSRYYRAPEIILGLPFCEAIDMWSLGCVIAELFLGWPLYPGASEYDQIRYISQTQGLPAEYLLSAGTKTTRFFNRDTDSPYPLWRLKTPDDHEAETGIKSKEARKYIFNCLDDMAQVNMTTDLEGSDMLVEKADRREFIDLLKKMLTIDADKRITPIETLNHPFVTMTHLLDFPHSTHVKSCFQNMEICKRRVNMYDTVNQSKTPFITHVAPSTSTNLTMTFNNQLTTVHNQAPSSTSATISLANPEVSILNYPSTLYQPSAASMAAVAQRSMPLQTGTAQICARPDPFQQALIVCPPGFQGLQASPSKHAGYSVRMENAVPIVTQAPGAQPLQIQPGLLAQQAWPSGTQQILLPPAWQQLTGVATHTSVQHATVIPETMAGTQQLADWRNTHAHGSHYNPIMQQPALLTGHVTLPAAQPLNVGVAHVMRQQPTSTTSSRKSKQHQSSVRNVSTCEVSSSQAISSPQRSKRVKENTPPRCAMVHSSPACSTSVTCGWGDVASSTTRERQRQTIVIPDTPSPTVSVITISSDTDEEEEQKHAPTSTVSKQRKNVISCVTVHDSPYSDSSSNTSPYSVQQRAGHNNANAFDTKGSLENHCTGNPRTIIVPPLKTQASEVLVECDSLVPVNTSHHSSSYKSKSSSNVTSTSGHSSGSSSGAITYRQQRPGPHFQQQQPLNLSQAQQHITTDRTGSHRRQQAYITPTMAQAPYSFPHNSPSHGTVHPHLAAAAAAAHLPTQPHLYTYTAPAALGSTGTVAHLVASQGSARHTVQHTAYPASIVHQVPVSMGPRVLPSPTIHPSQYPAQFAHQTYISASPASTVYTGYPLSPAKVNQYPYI
Chain of cGMP-dependent protein kinase 1 (Homo sapiens) (Q13976 whole entry): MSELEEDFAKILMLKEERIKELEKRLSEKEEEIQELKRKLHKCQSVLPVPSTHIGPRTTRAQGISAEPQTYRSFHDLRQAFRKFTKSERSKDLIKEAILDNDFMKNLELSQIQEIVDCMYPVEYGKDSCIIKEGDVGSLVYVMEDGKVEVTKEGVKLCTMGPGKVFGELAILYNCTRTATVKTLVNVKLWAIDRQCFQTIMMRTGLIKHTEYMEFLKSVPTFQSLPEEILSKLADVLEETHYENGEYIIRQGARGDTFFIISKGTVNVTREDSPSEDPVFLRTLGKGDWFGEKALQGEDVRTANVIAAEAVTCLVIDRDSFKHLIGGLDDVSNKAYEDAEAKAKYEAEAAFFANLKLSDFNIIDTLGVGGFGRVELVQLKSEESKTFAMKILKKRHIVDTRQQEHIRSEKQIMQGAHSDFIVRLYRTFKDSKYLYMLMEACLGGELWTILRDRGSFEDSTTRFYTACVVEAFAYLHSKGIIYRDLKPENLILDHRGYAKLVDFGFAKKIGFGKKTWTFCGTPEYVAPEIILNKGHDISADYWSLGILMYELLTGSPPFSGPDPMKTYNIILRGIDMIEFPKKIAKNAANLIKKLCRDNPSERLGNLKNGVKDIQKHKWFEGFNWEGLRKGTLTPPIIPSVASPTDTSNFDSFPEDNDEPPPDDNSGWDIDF
Chain of Tyrosine-protein kinase ABL1 (Homo sapiens), P00519 [F317I] (P00519 whole entry F317I): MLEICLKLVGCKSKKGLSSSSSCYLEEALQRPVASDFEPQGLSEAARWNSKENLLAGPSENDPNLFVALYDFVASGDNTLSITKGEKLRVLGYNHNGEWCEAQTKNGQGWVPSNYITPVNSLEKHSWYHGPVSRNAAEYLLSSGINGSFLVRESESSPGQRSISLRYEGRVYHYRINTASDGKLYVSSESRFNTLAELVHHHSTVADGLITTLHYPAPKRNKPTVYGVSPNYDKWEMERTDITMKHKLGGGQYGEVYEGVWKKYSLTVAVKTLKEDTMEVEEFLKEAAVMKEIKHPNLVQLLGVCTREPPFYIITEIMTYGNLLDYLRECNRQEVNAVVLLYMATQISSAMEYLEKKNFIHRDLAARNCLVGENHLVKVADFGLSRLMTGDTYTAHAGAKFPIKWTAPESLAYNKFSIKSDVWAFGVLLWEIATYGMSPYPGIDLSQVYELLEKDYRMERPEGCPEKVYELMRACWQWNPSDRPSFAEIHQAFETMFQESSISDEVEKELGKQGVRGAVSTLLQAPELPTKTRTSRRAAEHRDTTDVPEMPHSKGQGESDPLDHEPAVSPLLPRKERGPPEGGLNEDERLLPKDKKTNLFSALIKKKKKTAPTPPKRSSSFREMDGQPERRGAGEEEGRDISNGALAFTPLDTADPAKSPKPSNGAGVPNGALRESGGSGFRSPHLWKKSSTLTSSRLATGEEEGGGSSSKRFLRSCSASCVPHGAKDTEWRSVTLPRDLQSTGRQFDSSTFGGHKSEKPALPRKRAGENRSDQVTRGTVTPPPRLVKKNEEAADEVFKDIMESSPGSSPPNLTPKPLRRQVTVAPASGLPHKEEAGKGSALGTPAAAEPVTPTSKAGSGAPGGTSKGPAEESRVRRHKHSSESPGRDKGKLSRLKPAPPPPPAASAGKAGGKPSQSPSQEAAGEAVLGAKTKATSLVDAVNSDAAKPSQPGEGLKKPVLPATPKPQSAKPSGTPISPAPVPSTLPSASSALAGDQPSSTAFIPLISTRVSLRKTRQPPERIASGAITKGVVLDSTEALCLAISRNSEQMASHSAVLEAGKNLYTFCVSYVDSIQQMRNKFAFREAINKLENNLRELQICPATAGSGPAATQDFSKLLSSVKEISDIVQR
Chain of Casein kinase I isoform alpha (Homo sapiens) (P48729 2-337 limits assumed): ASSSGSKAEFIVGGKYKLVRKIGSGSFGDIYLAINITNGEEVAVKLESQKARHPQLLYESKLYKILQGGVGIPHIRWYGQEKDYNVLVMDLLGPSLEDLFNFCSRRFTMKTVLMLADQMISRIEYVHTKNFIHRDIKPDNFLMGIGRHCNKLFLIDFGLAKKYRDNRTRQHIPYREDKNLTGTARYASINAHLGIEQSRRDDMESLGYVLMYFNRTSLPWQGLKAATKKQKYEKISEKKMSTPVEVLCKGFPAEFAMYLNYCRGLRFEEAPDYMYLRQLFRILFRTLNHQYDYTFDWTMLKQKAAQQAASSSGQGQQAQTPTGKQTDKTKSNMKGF
Chain of Cyclin-dependent kinase 13 (Homo sapiens) (Q14004 whole entry, looked up): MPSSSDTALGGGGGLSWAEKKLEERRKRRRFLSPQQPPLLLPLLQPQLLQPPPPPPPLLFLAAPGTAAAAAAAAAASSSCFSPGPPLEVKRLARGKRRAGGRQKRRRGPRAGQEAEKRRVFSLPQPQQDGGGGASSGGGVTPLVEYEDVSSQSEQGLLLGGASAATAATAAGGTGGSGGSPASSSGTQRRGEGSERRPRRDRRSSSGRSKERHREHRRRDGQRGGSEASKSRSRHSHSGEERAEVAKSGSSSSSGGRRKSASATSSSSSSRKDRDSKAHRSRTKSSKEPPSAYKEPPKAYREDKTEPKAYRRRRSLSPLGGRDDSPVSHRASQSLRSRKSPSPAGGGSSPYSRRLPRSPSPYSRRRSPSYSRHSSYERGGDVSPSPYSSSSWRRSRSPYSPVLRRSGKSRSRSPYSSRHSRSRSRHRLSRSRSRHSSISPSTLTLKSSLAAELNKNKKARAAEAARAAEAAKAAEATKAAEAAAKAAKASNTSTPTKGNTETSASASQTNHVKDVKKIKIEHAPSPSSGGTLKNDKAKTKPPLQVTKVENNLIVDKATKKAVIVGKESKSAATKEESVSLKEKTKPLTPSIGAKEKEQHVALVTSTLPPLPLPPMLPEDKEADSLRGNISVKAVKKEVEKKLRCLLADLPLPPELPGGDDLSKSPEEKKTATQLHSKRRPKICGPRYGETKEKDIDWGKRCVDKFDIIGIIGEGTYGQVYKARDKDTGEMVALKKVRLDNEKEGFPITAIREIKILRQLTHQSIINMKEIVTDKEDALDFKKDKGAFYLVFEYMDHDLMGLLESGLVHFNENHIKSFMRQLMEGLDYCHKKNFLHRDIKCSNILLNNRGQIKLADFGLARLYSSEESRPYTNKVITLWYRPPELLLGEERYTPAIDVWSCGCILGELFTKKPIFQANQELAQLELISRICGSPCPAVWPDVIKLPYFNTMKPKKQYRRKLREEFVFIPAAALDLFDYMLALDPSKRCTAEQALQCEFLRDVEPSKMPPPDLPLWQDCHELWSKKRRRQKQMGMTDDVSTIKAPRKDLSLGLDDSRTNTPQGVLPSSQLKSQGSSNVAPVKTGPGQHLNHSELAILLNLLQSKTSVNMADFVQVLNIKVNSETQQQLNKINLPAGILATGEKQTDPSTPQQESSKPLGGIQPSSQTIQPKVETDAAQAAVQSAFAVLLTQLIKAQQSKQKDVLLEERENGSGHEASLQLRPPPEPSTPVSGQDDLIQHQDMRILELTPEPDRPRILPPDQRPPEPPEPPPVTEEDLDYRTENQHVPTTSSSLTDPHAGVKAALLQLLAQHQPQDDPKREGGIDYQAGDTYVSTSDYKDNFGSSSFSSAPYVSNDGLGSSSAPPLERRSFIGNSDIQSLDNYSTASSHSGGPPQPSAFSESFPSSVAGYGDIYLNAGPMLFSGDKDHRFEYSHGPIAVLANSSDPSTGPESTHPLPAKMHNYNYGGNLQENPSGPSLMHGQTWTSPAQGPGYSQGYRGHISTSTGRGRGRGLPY

C[C@@]1(Cc2ccc(C#N)cc2)C(=O)N(c2cc(Cl)cc(Cl)c2)c2ncc(C(=O)NC3(c4nc(C5CCC5)no4)CC3)n21 [BI 9446]
residual activity [1]: 91%
inhibition [2]: 9.3%
residual activity [3]: 65%
residual activity [4]: 95%
residual activity [5]: 99%
residual activity [6]: 98%
residual activity [7]: 100%
residual activity [8]: 100%
residual activity [9]: 100%
residual activity [10]: 100%
residual activity [11]: 100%
residual activity [12]: 100%
residual activity [13]: 100%
residual activity [14]: 78%
residual activity [15]: 79%
inhibition [16]: 16.1%
residual activity [17]: 100%
residual activity [18]: 100%
residual activity [19]: 100%
residual activity [20]: 100%
residual activity [21]: 100%
residual activity [22]: 100%
residual activity [23]: 100%
residual activity [24]: 83%
residual activity [25]: 100%
residual activity [26]: 100%
residual activity [27]: 87%
residual activity [28]: 12%
residual activity [29]: 100%
residual activity [30]: 100%
residual activity [31]: 100%
residual activity [32]: 94%
residual activity [33]: 95%
residual activity [34]: 100%
residual activity [35]: 87%
residual activity [36]: 100%
residual activity [37]: 100%
residual activity [38]: 89%
residual activity [39]: 100%
residual activity [40]: 100%
residual activity [41]: 100%
residual activity [42]: 99%
inhibition [43]: 31.1%
residual activity [44]: 100%
residual activity [45]: 100%

C[C@H](NC(=O)c1cnc2n1[C@](C)(Cc1ccc(C#N)cc1)C(=O)N2c1cc(Cl)c(F)c(Cl)c1)C(=O)NC1(c2ccccn2)CC1 [BI 1950]
residual activity [1]: 77%
inhibition [2]: 0.16%
residual activity [3]: 83%
residual activity [4]: 63%
residual activity [5]: 91%
residual activity [6]: 100%
residual activity [7]: 100%
residual activity [8]: 100%
residual activity [9]: 100%
residual activity [10]: 100%
residual activity [11]: 100%
residual activity [12]: 100%
residual activity [13]: 100%
residual activity [14]: 100%
residual activity [15]: 82%
inhibition [16]: 6.67%
residual activity [17]: 100%
residual activity [18]: 100%
residual activity [19]: 100%
residual activity [20]: 100%
residual activity [21]: 100%
residual activity [22]: 100%
residual activity [23]: 100%
residual activity [24]: 88%
residual activity [25]: 62%
residual activity [26]: 100%
residual activity [27]: 100%
residual activity [28]: 100%
residual activity [29]: 100%
residual activity [30]: 100%
residual activity [31]: 100%
residual activity [32]: 100%
residual activity [33]: 100%
residual activity [34]: 100%
residual activity [35]: 85%
residual activity [36]: 100%
residual activity [37]: 96%
residual activity [38]: 78%
residual activity [39]: 100%
residual activity [40]: 100%
residual activity [41]: 81%
residual activity [42]: 100%
inhibition [43]: 17.4%
residual activity [44]: 100%
residual activity [45]: 100%
